This passage reports Kd results from publication PMC10016662 (PLOS Pathogens, 2023).

As a reminder, the Kd is a measure of binding affinity in units of concentration.

Read-outs that look alike come from different tables or passages of the source.

The target of the test is T1, HRTV Gc (Heartland virus, UniProt J3WAX0).
T1 construct: gene GP
Description: biochemical. Format: binding.

T1 sequence (J3WAX0 567-999 limits assumed): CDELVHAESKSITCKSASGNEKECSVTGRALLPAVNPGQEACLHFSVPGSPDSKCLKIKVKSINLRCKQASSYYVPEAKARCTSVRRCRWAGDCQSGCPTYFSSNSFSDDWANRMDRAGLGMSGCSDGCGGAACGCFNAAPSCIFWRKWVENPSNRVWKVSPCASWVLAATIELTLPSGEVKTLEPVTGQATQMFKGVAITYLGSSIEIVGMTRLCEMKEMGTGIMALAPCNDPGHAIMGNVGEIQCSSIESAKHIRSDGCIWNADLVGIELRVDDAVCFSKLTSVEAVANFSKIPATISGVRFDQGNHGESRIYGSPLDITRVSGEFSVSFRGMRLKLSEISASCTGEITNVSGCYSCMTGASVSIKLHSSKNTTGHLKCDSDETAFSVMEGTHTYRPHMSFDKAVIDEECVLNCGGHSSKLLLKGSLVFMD

For the compound GalCer, the dissociation constant (Kd) (read-out: KD) is 600 nM.
For GlcCer, the Kd (read-out: KD) is less than 1 nM.
`CCCCCCCC/C=C\CCCCCCCC(=O)OC[C@H](COP(=O)([O-])OCC[N+](C)(C)C)OC(=O)CCCCCCC/C=C\CCCCCCCC` [DOPC] came in with a Kd of 2100 nM.
